Consider five compounds from ChEMBL document CHEMBL4368904 (J Med Chem, 2019).

Data set [1] addresses T1, 5-hydroxytryptamine receptor 2C (Homo sapiens, UniProt P28335).
T1 sequence (P28335 whole entry): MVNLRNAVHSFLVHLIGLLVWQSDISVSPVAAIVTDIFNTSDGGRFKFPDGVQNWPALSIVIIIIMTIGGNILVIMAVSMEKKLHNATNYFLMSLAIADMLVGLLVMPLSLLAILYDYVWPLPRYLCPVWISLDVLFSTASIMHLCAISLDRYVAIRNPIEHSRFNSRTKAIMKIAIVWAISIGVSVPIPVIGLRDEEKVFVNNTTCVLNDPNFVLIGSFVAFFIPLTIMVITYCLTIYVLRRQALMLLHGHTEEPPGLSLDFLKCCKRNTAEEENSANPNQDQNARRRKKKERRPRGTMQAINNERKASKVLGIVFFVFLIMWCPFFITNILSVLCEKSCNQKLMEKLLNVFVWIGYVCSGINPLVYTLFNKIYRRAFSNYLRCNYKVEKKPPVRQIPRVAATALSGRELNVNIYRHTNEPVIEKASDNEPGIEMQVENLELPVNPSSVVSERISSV
Nature of the data set: Inhibition of 5HT2C (unknown origin).

The target of data set [2] is Sigma non-opioid intracellular receptor 1 (Homo sapiens, UniProt Q99720). Kind of data set: Inhibition of sigma receptor 1 (unknown origin).
Data set [3] deals with Sigma intracellular receptor 2 (Homo sapiens, UniProt Q5BJF2). Kind of data set: Inhibition of sigma receptor 2 (unknown origin).
For a further data set, the target named is Adenosine receptor A2a (Homo sapiens, UniProt P29274). Kind of data set: Displacement of [3H]2-[p-(2-carboxyethyl)phenylethylamino]-5-N-ethylcarboxamidoadenosine from human A2A adenosine receptor expressed in HEK293 cell membranes at 10 uM after 60 mins by scintillation proximity assay relative to adenosine 5-N-ethyluronamide.
The next data set addresses Histamine H2 receptor (Homo sapiens, UniProt P25021). Nature of the data set: Inhibition of histamine H2 receptor (unknown origin).
In data set [4] the target is 5-hydroxytryptamine receptor 5A (Homo sapiens, UniProt P47898). Nature of the data set: Inhibition of 5HT5A (unknown origin).
Data set [5] deals with T2, Adenosine receptor A3 (Homo sapiens) (UniProt P0DMS8).
T2 sequence (whole entry): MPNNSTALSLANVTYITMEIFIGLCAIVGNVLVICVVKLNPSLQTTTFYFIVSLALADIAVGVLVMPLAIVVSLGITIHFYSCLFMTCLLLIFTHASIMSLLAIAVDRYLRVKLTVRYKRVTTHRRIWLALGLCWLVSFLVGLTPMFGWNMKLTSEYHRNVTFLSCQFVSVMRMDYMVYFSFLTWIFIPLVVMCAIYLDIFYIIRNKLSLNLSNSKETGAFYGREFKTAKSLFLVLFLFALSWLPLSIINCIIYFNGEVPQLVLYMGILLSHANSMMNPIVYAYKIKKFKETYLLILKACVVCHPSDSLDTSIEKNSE
Nature of the data set: Displacement of [125I]N6-(4-amino-3-iodobenzyl)adenosine-5-N-methyluronamide from human A3A adenosine receptor expressed in CHO cell membranes at 10 uM after 60 mins by scintillation proximity assay relative to adenosine 5-N-ethyluronamide. In general terms: Displacement assays read how much labelled ligand stays bound in the presence of the test substance.

The target of data set [6] is T3, Adenosine receptor A1 (Homo sapiens) (UniProt P30542).
T3 sequence (whole entry): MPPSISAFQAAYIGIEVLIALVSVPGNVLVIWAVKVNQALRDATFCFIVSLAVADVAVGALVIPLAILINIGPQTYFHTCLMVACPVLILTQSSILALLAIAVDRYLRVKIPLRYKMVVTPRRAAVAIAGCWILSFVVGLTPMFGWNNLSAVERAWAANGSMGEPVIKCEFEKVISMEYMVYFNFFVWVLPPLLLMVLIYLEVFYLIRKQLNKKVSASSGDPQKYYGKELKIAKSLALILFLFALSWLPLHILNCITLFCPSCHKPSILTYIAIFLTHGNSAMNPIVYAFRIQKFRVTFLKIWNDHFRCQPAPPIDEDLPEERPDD
Kind of data set: Displacement of [3H]N6-R-phenylisopropyladenosine from human A1A adenosine receptor expressed in CHO cell membranes at 10 uM after 60 mins by scintillation proximity assay relative to adenosine 5-N-ethyluronamide.

In the next data set the target is Translocator protein (Homo sapiens, UniProt P30536). Nature of the data set: Inhibition of TSPO (unknown origin) at 10 uM relative to control.
The test system of data set [7] is Mus musculus. Kind of data set: Induction of hypothermia in C57BL/6J mouse assessed as activity counts at 10 mg/kg, ip measured at 60 mins post dose (reference value: 15.5 +/- 5.5). The format is functional.
Data set [8] is filed under the species Mus musculus. Kind of data set: Selectivity index, ratio of Ki for mouse A3A adenosine receptor to Ki for mouse A1A adenosine receptor expressed in CHO cell membranes after 60 mins by scintillation proximity assay.
The target of data set [9] is T4, Adenosine receptor A1 (Homo sapiens, UniProt P30542).
T4 sequence (P30542 whole entry): T3 sequence (whole entry)
Kind of data set: Agonist activity at human A1A adenosine receptor expressed in CHOKI cells assessed as induction of beta-arrestin2 recruitment after 60 mins. Format: cell-based. For orientation: Recruitment of arrestin is a read-out of receptor activation apart from second messengers.

The target of data set [10] is T4, Adenosine receptor A1. Kind of data set: Agonist activity at human A1A adenosine receptor expressed in HEK cells assessed as inhibition of forskolin-stimulated cAMP production after 60 mins. Format: functional, cell-based.
Data set [11] is described as follows: Fraction unbound in mouse plasma at 10 uM. Format: ADME, cell-free.
Data set [12] deals with T5, Adenosine receptor A3 (Mus musculus) (UniProt Q61618).
T5 sequence (whole entry): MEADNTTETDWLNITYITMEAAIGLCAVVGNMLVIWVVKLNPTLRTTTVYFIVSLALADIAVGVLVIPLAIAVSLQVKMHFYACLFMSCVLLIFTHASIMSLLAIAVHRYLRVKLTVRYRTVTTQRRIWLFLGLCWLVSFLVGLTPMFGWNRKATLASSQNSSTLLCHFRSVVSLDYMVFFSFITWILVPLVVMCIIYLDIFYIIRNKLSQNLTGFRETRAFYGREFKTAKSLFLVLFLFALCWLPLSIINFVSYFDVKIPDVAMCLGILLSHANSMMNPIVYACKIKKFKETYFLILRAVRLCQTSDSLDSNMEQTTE
Nature of the data set: Agonist activity at mouse A3AR adenosine receptor at 10 uM after 60 mins by [35S]GTPgammaS binding assay relative to (2S,3S,4R,5R)-5-(6-amino-9H-purin-9-yl)-N-ethyl-3,4-dihydroxytetrahydrofuran-2-carboxamide. The format is functional. In general terms: GTPγS resists hydrolysis and so accumulates on activated G proteins.

For data set [13], the target named is T4, Adenosine receptor A1. Kind of data set: Agonist activity at human A1A adenosine receptor expressed in HEK cell membranes incubated for 60 mins by [35S]GTPgammaS binding assay. The format is functional.
Data set [14] concerns the target T5, Adenosine receptor A3 (Mus musculus). Kind of data set: Displacement of [125I]N6-(4-amino-3-iodobenzyl)adenosine-5-N-methyluronamide from mouse A3A adenosine receptor expressed in CHO cell membranes at 10 uM after 60 mins by scintillation proximity assay relative to adenosine 5-N-ethyluronamide.
A short description of data set [15]: Fraction unbound in human plasma at 10 uM. The format is ADME, cell-free.
Data set [16] is described as follows: Fraction unbound in rat plasma at 10 uM. Format: ADME, cell-free.
Data set [17] has as its system Mus musculus. Kind of data set: Induction of hypothermia in C57BL/6J mouse assessed as body temperature at 10 mg/kg, ip measured at 60 mins post dose (reference value: 36.3 +/- 0.8 degC). Format: functional.
The target of a further data set is Histamine H1 receptor (Homo sapiens, UniProt P35367). Kind of data set: Inhibition of histamine H1 receptor (unknown origin).
Histamine H1 receptor, sequence (P35367 whole entry): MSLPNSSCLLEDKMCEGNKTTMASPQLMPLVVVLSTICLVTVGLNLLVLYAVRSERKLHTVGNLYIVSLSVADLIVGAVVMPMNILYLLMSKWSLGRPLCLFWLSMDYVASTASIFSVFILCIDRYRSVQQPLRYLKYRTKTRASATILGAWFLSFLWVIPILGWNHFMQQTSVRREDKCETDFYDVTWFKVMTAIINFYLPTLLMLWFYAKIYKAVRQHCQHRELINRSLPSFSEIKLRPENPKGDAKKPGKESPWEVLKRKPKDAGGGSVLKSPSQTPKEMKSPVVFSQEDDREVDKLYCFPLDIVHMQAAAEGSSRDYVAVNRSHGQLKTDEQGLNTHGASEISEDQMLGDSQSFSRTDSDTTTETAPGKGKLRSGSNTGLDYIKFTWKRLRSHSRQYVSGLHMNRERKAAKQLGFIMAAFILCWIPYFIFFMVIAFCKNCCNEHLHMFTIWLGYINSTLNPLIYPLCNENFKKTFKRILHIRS

Adenosine receptor A2a, sequence (P29274 whole entry): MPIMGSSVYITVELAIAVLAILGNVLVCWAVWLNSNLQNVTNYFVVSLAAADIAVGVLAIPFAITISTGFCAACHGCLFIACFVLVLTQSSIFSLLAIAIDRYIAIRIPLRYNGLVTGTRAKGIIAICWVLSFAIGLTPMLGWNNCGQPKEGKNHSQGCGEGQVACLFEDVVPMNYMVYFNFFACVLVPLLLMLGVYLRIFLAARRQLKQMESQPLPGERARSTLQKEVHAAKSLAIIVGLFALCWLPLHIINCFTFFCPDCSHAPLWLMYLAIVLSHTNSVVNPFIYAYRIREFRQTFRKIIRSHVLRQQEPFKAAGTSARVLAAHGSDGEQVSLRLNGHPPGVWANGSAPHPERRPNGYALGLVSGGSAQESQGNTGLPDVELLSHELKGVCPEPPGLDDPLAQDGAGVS
Sigma intracellular receptor 2, sequence (Q5BJF2 whole entry): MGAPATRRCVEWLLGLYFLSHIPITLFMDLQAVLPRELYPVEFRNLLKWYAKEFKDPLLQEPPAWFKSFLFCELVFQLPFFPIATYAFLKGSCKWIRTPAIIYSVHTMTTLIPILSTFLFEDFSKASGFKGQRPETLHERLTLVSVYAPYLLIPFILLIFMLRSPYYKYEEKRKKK
Sigma non-opioid intracellular receptor 1, sequence (Q99720 whole entry): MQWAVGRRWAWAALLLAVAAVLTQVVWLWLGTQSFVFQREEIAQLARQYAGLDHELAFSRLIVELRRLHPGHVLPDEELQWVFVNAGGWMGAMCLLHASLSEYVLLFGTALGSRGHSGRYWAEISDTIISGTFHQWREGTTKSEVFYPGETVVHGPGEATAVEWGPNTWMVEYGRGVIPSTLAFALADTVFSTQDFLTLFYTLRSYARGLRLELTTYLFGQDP
Histamine H2 receptor, sequence (P25021 whole entry): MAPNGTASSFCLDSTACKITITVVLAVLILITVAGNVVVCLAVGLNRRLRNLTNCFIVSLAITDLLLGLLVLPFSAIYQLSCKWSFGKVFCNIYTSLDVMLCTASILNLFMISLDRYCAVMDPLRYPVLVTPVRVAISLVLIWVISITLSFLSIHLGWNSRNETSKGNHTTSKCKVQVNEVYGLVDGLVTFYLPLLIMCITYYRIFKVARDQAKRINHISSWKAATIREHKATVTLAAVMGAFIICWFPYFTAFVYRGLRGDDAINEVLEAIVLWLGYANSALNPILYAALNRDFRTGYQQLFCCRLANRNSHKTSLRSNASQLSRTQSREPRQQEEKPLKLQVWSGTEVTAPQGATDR
Translocator protein, sequence (P30536 whole entry): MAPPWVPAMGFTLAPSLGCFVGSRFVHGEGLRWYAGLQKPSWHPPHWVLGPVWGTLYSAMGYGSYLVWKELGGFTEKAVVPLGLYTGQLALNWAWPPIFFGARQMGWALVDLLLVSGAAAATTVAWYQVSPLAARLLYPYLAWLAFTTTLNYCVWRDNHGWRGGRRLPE
5-hydroxytryptamine receptor 5A, sequence (P47898 whole entry): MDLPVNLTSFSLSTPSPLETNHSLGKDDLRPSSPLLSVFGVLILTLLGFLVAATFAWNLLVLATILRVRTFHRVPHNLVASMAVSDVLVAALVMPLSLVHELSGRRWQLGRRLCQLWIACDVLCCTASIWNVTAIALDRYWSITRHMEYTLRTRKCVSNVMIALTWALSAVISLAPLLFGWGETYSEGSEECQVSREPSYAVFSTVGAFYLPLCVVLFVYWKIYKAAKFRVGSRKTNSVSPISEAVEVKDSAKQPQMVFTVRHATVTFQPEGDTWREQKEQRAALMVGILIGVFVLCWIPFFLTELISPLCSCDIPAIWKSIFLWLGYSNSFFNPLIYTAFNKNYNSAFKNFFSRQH

With `O[C@@H]1[C@H](O)[C@@H]2C[C@@H]2[C@H]1n1cnc2c(NC(C3CCCC3)C3CCCC3)nc(Cl)nc21`, the Ki in data set [1] was 2920 nM; in data set [2], 5090 nM; in data set [3] it was 2010 nM.

For `CCOC(=O)[C@@]12C[C@@H]1[C@@H](n1cnc3c(NC(C4CC4)C4CC4)nc(Cl)nc31)[C@@H]1OC(C)(C)O[C@@H]12`, the inhibition at Adenosine receptor A2a was 15%; in [5] it was 41%; in data set [6], 49%. Besides, the Ki amounted to 6380 nM on Histamine H2 receptor and 8690 nM in data set [4].

In the case of `CCSC[C@H]1O[C@@H](n2cnc3c(NC(C4CCC4)C4CCC4)ncnc32)[C@H](O)[C@@H]1O`, the inhibition on Adenosine receptor A2a is 30%; against Translocator protein, 90%. For the same compound, in data set [3], the affinity corresponds to a Ki of 642 nM.

Regarding `NC(=O)c1ncn([C@H]2[C@H](O)[C@H](O)[C@]3(CO)C[C@H]23)n1`, the values for the inhibition (at Adenosine receptor A2a; in data set [5]; in data set [14]) were 11%, 41% and 47%, respectively. Besides, in the data set with Mus musculus [7], the Activity was determined as 19.1. In data set [3], the inhibitory constant (Ki) was determined as 2090 nM. Moreover, in the data set listed under Mus musculus [8], the Ratio Ki is 400. The EC50 on Adenosine receptor A1 [9] came to 2460 nM; on Adenosine receptor A1 [13] it was 758 nM. On Adenosine receptor A1 [10], the IC50 was determined as 87 nM. Further, the Fu in [11], in data set [15] and in [16] was more than 80% in each case. Moreover, the Emax in data set [12] stood at 31%. For the same compound, the T in the data set on Mus musculus [17] turned out to be 35.7 °C.

As for `Nc1ncnc2c1ncn2[C@@H]1O[C@H](C(=O)NC2CC2)[C@@H](O)[C@H]1O`, the results for the Ki (at Histamine H1 receptor; in data set [3]) were 7880 nM and 4350 nM, respectively.

The term Ki denotes a dissociation constant, usually derived from enzyme kinetics or from competition with a known ligand. Lower therefore signals a stronger hold on the target. A word on the inhibition: it is the share of the control response that was lost under treatment. In general, EC50 refers to the concentration giving half of the maximal effect. As a reminder, the IC50 is the midpoint of a concentration-inhibition curve. The Emax is the greatest response seen or fitted, relative to the assay's reference.
